Test results: patent publication US9346809B2 (LEO PHARMA A/S, priority 2009, dated 2016)
Read-outs that look alike come from different tables or passages of the source.

Assays:
Format in all cases: biochemical
[1] = target: T1, JAK1 (aa 850-1154, catalytic domain, GST-tag) (Homo sapiens, UniProt P23458); assay: JAK kinase assay (HTRF, phosphorylation of TK substrate-biotin), JAK1; details: HTRF assay, ATP at Km (7 μM)
T1 construct: JAK1 (aa 850-1154) and TYK2 (aa 871-1187) are expressed with an N-terminally fused GST-tag; GST (N); purchased Carna Biosciences, Inc; host or cells: baculovirus expression system
T1 sequence (P23458 850-1154): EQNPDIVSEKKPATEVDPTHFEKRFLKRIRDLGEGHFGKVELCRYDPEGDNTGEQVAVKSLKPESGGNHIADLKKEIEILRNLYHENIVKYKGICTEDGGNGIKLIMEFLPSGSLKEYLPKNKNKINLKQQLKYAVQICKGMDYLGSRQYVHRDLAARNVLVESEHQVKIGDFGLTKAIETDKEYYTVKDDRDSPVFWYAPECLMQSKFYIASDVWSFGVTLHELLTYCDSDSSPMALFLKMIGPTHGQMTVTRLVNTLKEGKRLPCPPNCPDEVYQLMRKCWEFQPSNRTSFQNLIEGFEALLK
Procedure, shortened: (§1)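 Per reaction, 5 ng JAK1, 0.1 ng JAK2, 0.3 ng JAK3 or 0.8 ng TYK2 (baculovirus-expressed catalytic domains) acted on 1 μM TK substrate-biotin at Km ATP for 20-30 min, RT. Phosphorylation measured by HTRF.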

[2] = target: T2, TYK2 (aa 871-1187, catalytic domain, GST-tag) (Homo sapiens, UniProt P29597); assay: JAK kinase assay (HTRF, phosphorylation of TK substrate-biotin), TYK2; details: HTRF assay, ATP at Km (13 μM)
T2 construct: JAK1 (aa 850-1154) and TYK2 (aa 871-1187) are expressed with an N-terminally fused GST-tag; GST (N); purchased Carna Biosciences, Inc; host or cells: baculovirus expression system
T2 sequence (P29597 871-1187): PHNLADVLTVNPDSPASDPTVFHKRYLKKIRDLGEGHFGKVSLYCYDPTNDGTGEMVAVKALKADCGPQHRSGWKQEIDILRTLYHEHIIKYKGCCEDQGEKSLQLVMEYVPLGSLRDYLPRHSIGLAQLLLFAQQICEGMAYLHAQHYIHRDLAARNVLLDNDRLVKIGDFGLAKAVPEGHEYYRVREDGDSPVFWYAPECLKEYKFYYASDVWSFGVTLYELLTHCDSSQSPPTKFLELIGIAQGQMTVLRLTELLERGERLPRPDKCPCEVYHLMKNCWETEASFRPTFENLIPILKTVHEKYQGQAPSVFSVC
Procedure, shortened: as §1

[3] = target: T3, JAK2 (catalytic domain, His-tag) (Homo sapiens, UniProt O60674); assay: JAK kinase assay (HTRF, phosphorylation of TK substrate-biotin), JAK2; details: HTRF assay, ATP at Km (4 μM)
T3 construct: All four purified enzymes contain only the catalytic domain; His (N); purchased Carna Biosciences, Inc; host or cells: baculovirus expression system
T3 sequence (O60674 849-1124 limits assumed): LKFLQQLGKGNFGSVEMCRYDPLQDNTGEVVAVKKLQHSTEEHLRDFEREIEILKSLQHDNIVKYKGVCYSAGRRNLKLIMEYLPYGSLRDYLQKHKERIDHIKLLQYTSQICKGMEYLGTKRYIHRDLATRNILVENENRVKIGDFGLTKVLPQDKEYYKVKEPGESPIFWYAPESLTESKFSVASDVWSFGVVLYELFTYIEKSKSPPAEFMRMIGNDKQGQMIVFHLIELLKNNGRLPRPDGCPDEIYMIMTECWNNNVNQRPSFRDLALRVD
Procedure, shortened: as §1

[4] = target: T4, JAK3 (catalytic domain, His-tag) (Homo sapiens, UniProt P52333); assay: JAK kinase assay (HTRF, phosphorylation of TK substrate-biotin), JAK3; details: HTRF assay, ATP at Km (2 μM)
T4 construct: All four purified enzymes contain only the catalytic domain; His (N); purchased Carna Biosciences, Inc; host or cells: baculovirus expression system
T4 sequence (P52333 822-1111 limits assumed): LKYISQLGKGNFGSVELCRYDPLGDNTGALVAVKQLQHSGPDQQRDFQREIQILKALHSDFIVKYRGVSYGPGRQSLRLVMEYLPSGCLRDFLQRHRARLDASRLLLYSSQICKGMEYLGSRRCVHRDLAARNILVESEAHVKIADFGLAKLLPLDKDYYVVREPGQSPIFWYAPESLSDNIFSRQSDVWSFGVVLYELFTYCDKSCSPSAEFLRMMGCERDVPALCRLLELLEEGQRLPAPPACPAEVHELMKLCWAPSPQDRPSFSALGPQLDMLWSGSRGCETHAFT
Procedure, shortened: as §1

[5] = read-out: JAK1 kinase inhibitory activity (EC50 indicator)
[6] = read-out: TYK2 kinase inhibitory activity (EC50 indicator)
[7] = read-out: JAK2 kinase inhibitory activity (EC50 indicator)
[8] = read-out: JAK3 kinase inhibitory activity (EC50 indicator)
[9] = read-out: JAK1 kinase inhibitory activity (EC50)
[10] = read-out: TYK2 kinase inhibitory activity (EC50)
[11] = read-out: JAK2 kinase inhibitory activity (EC50)
[12] = read-out: JAK3 kinase inhibitory activity (EC50)

SMILES	EC50 [1, 5] [nM]	EC50 [2, 6] [nM]	EC50 [3, 7] [nM]	EC50 [4, 8] [nM]	EC50 [1, 9] [nM]	EC50 [2, 10] [nM]	EC50 [3, 11] [nM]	EC50 [4, 12] [nM]
O=C([C@@H]1CCCc2ccccc21)N1CCN(c2ncnc3[nH]ccc23)CC12CC2 [Example 415, [7-(7H-Pyrrolo[2,3-d]pyrimidin-4-yl)-4,7-diaza-spiro[2.5]oct-4-yl]-(1,2,3,4-tetrahydro-naphthalen-1-yl)-methanone]	100 to 500	> 500	100 to 500	> 500				
O=C([C@H]1CCCc2ccccc21)N1CCN(c2ncnc3[nH]ccc23)CC12CC2 [Example 416, [7-(7H-Pyrrolo[2,3-d]pyrimidin-4-yl)-4,7-diaza-spiro[2.5]oct-4-yl]-(1,2,3,4-tetrahydro-naphthalen-1-yl)-methanone]	100 to 500	> 500	< 100	100 to 500				
O=C(c1cnccn1)N1[C@@H]2CC[C@H]1CN(c1ncnc3[nH]ccc13)C2 [Example 421, Pyrazin-2-yl-[3-(7H-pyrrolo[2,3-d]pyrimidin-4-yl)-3,8-diaza-bicyclo[3.2.1]oct-8-yl]-methanone]	< 100	> 500	< 100	100 to 500				
N#Cc1ccc(C2(C(=O)N3CCN(c4ncnc5[nH]ccc45)CC34CC4)CC2)cc1 [Example 429, 4-{1-[7-(7H-Pyrrolo[2,3-d]pyrimidin-4-yl)-4,7-diaza-spiro[2.5]octane-4-carbonyl]-cyclopropyl}-benzonitrile]	< 100	100 to 500	< 100	< 100				
NS(=O)(=O)c1ccc(OCC(=O)N2CCN(c3ncnc4[nH]ccc34)CC23CC3)c(F)c1 [Example 434, 3-Fluoro-4-{2-oxo-2-[7-(7H-pyrrolo[2,3-d]pyrimidin-4-yl)-4,7-diaza-spiro[2.5]oct-4-yl]-ethoxy}-benzenesulfonamide]					< 100	< 100	< 100	< 100
NS(=O)(=O)c1cnn(CCC(=O)N2CCN(c3ncnc4[nH]ccc34)CC23CC3)c1 [Example 435, 1-{3-Oxo-3-[7-(7H-pyrrolo[2,3-d]pyrimidin-4-yl)-4,7-diaza-spiro[2.5]oct-4-yl]-propyl}-1H-pyrazole-4-sulfonic acid amide]					< 100	100 to 500	< 100	< 100
O=C(NC1CCCCC1)N1CCN(c2ncnc3[nH]ccc23)CC12CC2 [Example 436, 7-(7H-Pyrrolo[2,3-d]pyrimidin-4-yl)-4,7-diaza-spiro[2.5]octane-4-carboxylic acid cyclohexylamide]					< 100	100 to 500	< 100	< 100
S=C(NC1CCCCC1)N1CCN(c2ncnc3[nH]ccc23)CC12CC2 [Example 437, 7-(7H-Pyrrolo[2,3-d]pyrimidin-4-yl)-4,7-diaza-spiro[2.5]octane-4-carbothioic acid cyclohexylamide]					> 500	> 500	100 to 500	> 500
S=C(NCc1ccccc1)N1CCN(c2ncnc3[nH]ccc23)CC12CC2 [Example 438, 7-(7H-Pyrrolo[2,3-d]pyrimidin-4-yl)-4,7-diaza-spiro[2.5]octane-4-carbothioic acid benzylamide]					< 100	100 to 500	< 100	100 to 500

Second part, the compound after the results:

EC50 [1, 5] [nM]	EC50 [2, 6] [nM]	EC50 [3, 7] [nM]	EC50 [4, 8] [nM]	EC50 [1, 9] [nM]	EC50 [2, 10] [nM]	EC50 [3, 11] [nM]	EC50 [4, 12] [nM]	SMILES
< 100	< 100	< 100	< 100					Cc1nccnc1C(=O)N1CCN(c2ncnc3[nH]ccc23)CC12CC2 [Example 417, (3-Methyl-pyrazin-2-yl)-[7-(7H-pyrrolo[2,3-d]pyrimidin-4-yl)-4,7-diaza-spiro[2.5]oct-4-yl]-methanone]
< 100	< 100	< 100	< 100					Cc1cncc(C(=O)N2CCN(c3ncnc4[nH]ccc34)CC23CC3)n1 [Example 418, (6-Methyl-pyrazin-2-yl)-[7-(7H-pyrrolo[2,3-d]pyrimidin-4-yl)-4,7-diaza-spiro[2.5]oct-4-yl]-methanone]
< 100	< 100	< 100	< 100					Cc1nc2ccccc2nc1C(=O)N1CCN(c2ncnc3[nH]ccc23)CC12CC2 [Example 419, (3-Methyl-quinoxalin-2-yl)-[7-(7H-pyrrolo[2,3-d]pyrimidin-4-yl)-4,7-diaza-spiro[2.5]oct-4-yl]-methanone]
< 100	> 500	< 100	< 100					CS(=O)(=O)c1ccc(CC(=O)N2CCN(c3ncnc4[nH]ccc34)CC23CC3)cc1 [Example 420, 2-(4-Methanesulfonyl-phenyl)-1-[7-(7H-pyrrolo[2,3-d]pyrimidin-4-yl)-4,7-diaza-spiro[2.5]oct-4-yl]-ethanone]
< 100	> 500	< 100	100 to 500					CC(C)CNS(=O)(=O)c1csc(C(=O)N2CCN(c3ncnc4[nH]ccc34)CC23CC3)c1 [Example 423, 5-[7-(7H-Pyrrolo[2,3-d]pyrimidin-4-yl)-4,7-diaza-spiro[2.5]octane-4-carbonyl]-thiophene-3-sulfonic acid isobutyl-amide]
< 100	100 to 500	< 100	< 100					O=C(c1ccc(S(=O)(=O)NCc2ccco2)cc1)N1CCN(c2ncnc3[nH]ccc23)CC12CC2 [Example 426, N-Furan-2-ylmethyl-4-[7-(7H-pyrrolo[2,3-d]pyrimidin-4-yl)-4,7-diaza-spiro[2.5]octane-4-carbonyl]-benzenesulfonamide]
< 100	< 100	< 100	< 100					Cc1ccc(CNS(=O)(=O)c2ccc(C(=O)N3CCN(c4ncnc5[nH]ccc45)CC34CC4)cc2)o1 [Example 427, N-(5-Methyl-furan-2-ylmethyl)-4-[7-(7H-pyrrolo[2,3-d]pyrimidin-4-yl)-4,7-diaza-spiro[2.5]octane-4-carbonyl]-benzenesulfonamide]
< 100	100 to 500	< 100	< 100					CC(C)(C)OC(=O)NCCNS(=O)(=O)c1ccc(C(=O)N2CCN(c3ncnc4[nH]ccc34)CC23CC3)cc1 [Example 428, (2-{4-[7-(7H-Pyrrolo[2,3-d]pyrimidin-4-yl)-4,7-diaza-spiro[2.5]octane-4-carbonyl]-benzenesulfonylamino}-ethyl)-carbamic acid tert-butyl ester]
< 100	< 100	< 100	< 100					CS(=O)(=O)Nc1ccc(C(=O)N2CCN(c3ncnc4[nH]ccc34)CC23CC3)cc1 [Example 430, N-{4-[7-(7H-Pyrrolo[2,3-d]pyrimidin-4-yl)-4,7-diaza-spiro[2.5]octane-4-carbonyl]-phenyl}-methanesulfonamide]
< 100	100 to 500	< 100	100 to 500					CCCS(=O)(=O)Nc1ccc(C(=O)N2CCN(c3ncnc4[nH]ccc34)CC23CC3)cc1 [Example 431, Propane-1-sulfonic acid {4-[7-(7H-pyrrolo[2,3-d]pyrimidin-4-yl)-4,7-diaza-spiro[2.5]octane-4-carbonyl]-phenyl}-amide]
< 100	100 to 500	< 100	< 100					CC(C)S(=O)(=O)Nc1ccc(C(=O)N2CCN(c3ncnc4[nH]ccc34)CC23CC3)cc1 [Example 432, Propane-2-sulfonic acid {4-[7-(7H-pyrrolo[2,3-d]pyrimidin-4-yl)-4,7-diaza-spiro[2.5]octane-4-carbonyl]-phenyl}-amide]
< 100	100 to 500	< 100	100 to 500					COCCS(=O)(=O)c1ccc(C(=O)N2CCN(c3ncnc4[nH]ccc34)CC23CC3)cc1 [Example 433, [4-(2-Methoxy-ethanesulfonyl)-phenyl]-[7-(7H-pyrrolo[2,3-d]pyrimidin-4-yl)-4,7-diaza-spiro[2.5]oct-4-yl]-methanone]
				< 100	100 to 500	< 100	< 100	Cc1ccc(S(=O)(=O)N2CCN(c3ncnc4[nH]ccc34)CC23CC3)cc1 [Example 439, 4-[4-(Toluene-4-sulfonyl)-4,7-diazaspiro[2.5]oct-7-yl]-7H-pyrrolo[2,3-d]pyrimidine]
